Experiment [1] addresses BK currents, cloned α-hSlo and β-bSlo in CHO cells (Homo sapiens, UniProt Q12791). Briefly: Electrophysiological studies (whole-cell patch-clamp, BK currents). The class given is cell-based. The settings on record: ratio of current increase after application of compound (20 μM) relative to control current before application, steady-state. As to the method:
CHO cells permanently transfected with cloned α-hSlo and β-bSlo were maintained as described above and used for electrophysiologial characterisation. The whole-cell configuration of the patch-clamp technique was used to determine the effect of modulators on BK currents in these cells. The cell line expressing functional BK currents (Zhou et al., Pflügers Arch 436, p.725 (1998)) were plated onto glass cover slips with a density of 1-5×10^4 cells/cover slip, incubated (37° C., 5% CO2) and used for patch-clamp experiments within 24-48 h. Cells were bathed in mammalian ringer solutions containing (in mM): 160 NaCl, 4.5 KCl, 2CaCl2, 1 MgCl2, 10 HEPES, adjusted to pH 7.4, 290-310 mOsim. The internal pipette solution contained (in mM): 160 KCl, 2CaCl2, 1 MgCl2, 10 HEPES, EGTA was added to reach a free [Ca^2+]internal=1×10 ^−6M, adjusted to pH 7.2, 290-310 mOsm.
Borosilicate pipettes with a resistance of 2-3 MΩ were filled with the internal solution and mounted on an appropriate holder. Prior to measurements a recording chamber was mounted onto the cell-plated cover slips and the cells were perfused with a simple syringe driven perfusion system. Compounds were added in the final concentration ([…]) to the bath solution using the same system. An EPC-9 patch-clamp amplifier with Pulse and PulseFit software (HEKA) was used to record and analyze currents.
After addition of the compounds to the bath solution their modulating effect was determined by the increase or decrease of specific BK currents after reaching steady-state relative to the BK current before application of drugs (see Table II).
For orientation: The patch-clamp technique gives a direct electrical read-out from membranes.

Experiment [2] has as its target BK channels, cloned hSlo (α-hSlo and β-bSlo) in CHO cells (Homo sapiens, UniProt Q12791). Description: Em-Assay (voltage sensitive dye DiBAC(4)3 fluorescence, membrane potential). Type of experiment: cell-based. The note with it: ratio of the compound effect (50 μM) compared to the maximal effect of NS004 (25 or 50 μM); hSlo transfected CHO cells. The text has this:
The large conductance, voltage dependent and Ca^2+-activated potassium channel BK is a potassium selective ion channel and belongs to the subfamily of KCa channels. Four BK alpha-subunits form a functional channel that can be regulated by intracellular Ca^2+ concentration, membrane voltage, and other mechanisms like phosphorylation states or beta subunits. To test the biological activity of the compounds, we applied two different techniques, a fluorescence based assay using a voltage sensitive dye (Em-Assay) as well as exploiting electrophysiological methods.
CHO cells permanently transfected with cloned hSlo (α-hSlo and β-bSlo), yielding typical BK potassium currents (Zhou et al., Pflügers Arch., 436: 725-734 (1998), were used for the evaluation of compound activity. Activation or inhibition of BK channels in these cells leads to a change of the electrochemical gradient causing a hyperpolarized or depolarised membrane potential, respectively.
To determine changes in the membrane potential of the cells we used the voltage sensitive dye DiBAC(4)3 (Molecular Probes) in a kinetic assay system using a fluorescent plate reader (Manning and Sontheimer, J. Neurosci. Meth., 91: 73-81 (1999). The anionic bis-oxonol DiBAC(4)3 is a voltage sensitive dye which partitions from the extracellular environment into the cell where it reversibly binds to intracellular proteins, a kinetic process depending on the membrane potential of the cell. At depolarised potentials (i.e. at a reduced K^+ efflux due to blocked K^+ channels) the dye accumulates in the cell leading to an increased fluorescence intensity, due to its increased fluorescence if bound to cellular proteins. At hyperpolarized potentials (i.e. at an increased K^+ efflux due to the opening of K^+ channels), the dye partitions out of the cell causing a decreased fluorescence intensity.
hSlo transfected CHO cells where maintained in DMEM supplemented with 10% FCS, 250 μg/ml Geneticin, 100 μg/ml Hygromycin, 1×HT-Supplement, and 1×Non-essential Amino Acids and cultured in a humidified CO2 incubator. After trypsination, cells where plated with a density of 5×10^4 cells per well on a clear 96-well plate and incubated for 24 h. Cells where washed once with PBS, once with PBS containing 20 mM HEPES (adjusted to pH 7.4 with NaOH) and 2 μM DiBAC(4)3 (DPBS-DiMAC solution). 180 μl of the dPBS-DiBAC solution was then added to the cells and the plate incubated for 30-60 min at 37° C. During this time the dye could partition into the cells and reach a certain steady-state distribution, depending on the resting membrane potential. Test and reference compounds were stored as DMSO stock solutions and diluted in dPBS-DiBAC solution to the desired concentration.
Fluorescence intensity (Ex.: 485 nm/Em: 520 nm) of each well was detected in the plate reader (Fluostar, BMG) every 60 seconds. After recording the baseline fluorescence for 7 minutes, 20 μl test and reference compounds were added and the fluorescence intensity was detected for additional 15 minutes. Background was subtracted, data values were normalized and expressed as a change in fluorescence intensity against time. The change in fluorescence intensity caused by the test compounds was evaluated compared to the effect of the reference compound NS004, and the ratio was determined (see Table I).

Sequence of BK channels, cloned hSlo (α-hSlo and β-bSlo) in CHO cells (Q12791 whole entry): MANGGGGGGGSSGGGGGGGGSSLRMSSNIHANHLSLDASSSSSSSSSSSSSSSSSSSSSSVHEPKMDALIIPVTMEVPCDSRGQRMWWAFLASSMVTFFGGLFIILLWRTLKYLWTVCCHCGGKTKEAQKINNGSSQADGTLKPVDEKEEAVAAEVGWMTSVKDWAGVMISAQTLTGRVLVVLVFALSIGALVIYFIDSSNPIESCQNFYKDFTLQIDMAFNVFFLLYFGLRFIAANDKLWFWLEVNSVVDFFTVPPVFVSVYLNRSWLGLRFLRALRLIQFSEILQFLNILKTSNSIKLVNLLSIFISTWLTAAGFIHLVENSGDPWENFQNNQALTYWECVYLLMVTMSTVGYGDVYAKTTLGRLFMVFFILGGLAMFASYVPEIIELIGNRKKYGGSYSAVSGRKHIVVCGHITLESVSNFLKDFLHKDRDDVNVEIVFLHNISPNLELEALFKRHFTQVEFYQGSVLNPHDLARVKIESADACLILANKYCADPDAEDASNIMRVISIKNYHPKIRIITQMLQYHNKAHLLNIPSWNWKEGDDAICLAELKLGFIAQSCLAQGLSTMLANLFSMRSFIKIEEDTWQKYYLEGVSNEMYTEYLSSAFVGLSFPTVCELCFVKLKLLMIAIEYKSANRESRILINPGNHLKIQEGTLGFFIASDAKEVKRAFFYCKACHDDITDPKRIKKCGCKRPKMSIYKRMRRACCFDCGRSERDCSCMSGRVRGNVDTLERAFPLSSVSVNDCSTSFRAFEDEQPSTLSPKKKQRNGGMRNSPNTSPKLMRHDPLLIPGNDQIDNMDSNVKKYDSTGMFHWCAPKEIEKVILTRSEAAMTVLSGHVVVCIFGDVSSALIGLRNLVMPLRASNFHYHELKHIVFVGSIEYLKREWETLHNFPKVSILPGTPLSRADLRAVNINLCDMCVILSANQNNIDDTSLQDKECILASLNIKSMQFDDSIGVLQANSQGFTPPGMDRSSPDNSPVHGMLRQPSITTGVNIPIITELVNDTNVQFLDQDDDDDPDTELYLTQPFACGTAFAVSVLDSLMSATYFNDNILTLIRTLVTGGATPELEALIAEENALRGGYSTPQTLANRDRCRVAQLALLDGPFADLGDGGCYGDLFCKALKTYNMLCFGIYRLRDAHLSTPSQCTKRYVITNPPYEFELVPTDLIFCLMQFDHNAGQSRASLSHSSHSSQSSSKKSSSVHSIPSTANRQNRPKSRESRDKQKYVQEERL
Sequence of BK channels, cloned hSlo (α-hSlo and β-bSlo) in CHO cells (Q28067 whole entry partner): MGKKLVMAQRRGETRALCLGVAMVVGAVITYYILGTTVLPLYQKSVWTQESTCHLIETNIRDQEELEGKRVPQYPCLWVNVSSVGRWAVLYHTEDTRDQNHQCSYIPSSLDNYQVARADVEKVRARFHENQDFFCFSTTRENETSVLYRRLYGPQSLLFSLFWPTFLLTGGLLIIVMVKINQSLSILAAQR
Sequence of BK currents, cloned α-hSlo and β-bSlo in CHO cells (Q12791 whole entry): as the sequence (Q12791 whole entry) above
Sequence of BK currents, cloned α-hSlo and β-bSlo in CHO cells (Q28067 whole entry partner): as the sequence (Q28067 whole entry partner) above

For the compound `Clc1ccccc1-c1ccc2[nH]ccc2c1` [Compound 30], the “Effect (ratio of current increase)” value in experiment [1] was “+ (1-1.1=+)”. Further, in experiment [2], the Em effect result is “++ (>1=++)”.
